Data set [1] relates to Mus musculus. Description: Neurotoxicity in mouse assessed as induction of motor impairment at 100 mg/kg, ip measured at 4 hrs post dose by rotarod method. The format is toxicity, organism-based. To be noted: in vivo.
Data set [2] relates to Rattus norvegicus. Briefly: Anticonvulsant activity in ip dosed maximal electroshock induced seizure Sprague-Dawley rat model assessed as suppression in hindlimb tonic extension by measuring time to peak effect. The format is functional.
Data set [3] addresses Cannabinoid receptor 1 (Homo sapiens) (UniProt P21554). Description: Displacement of [3H]CP 55940 from human recombinant CB1 receptor expressed in CHO cells at 100 uM measured after 120 mins by scintillation counting method relative to control. Format: cell-based.
Data set [4] can be described thus: Protection index, ratio of TD50 for neurotoxicity in po dosed Sprague-Dawley rat model to ED50 for po dosed maximal electroshock induced seizure Sprague-Dawley rat model. Format: toxicity, organism-based. To be noted: in vivo, read-out: Ratio TD50/ED50.
Data set [5] concerns the target Sodium-dependent noradrenaline transporter (Homo sapiens) (UniProt P23975). Description: Displacement of [3H]nisoxetine from human recombinant norepinephrine transporter expressed in CHO cells at 100 uM measured after 120 mins by scintillation counting method relative to control. The format is cell-based.
For data set [6], the species on record is Rattus norvegicus. Description: Displacement of [3H]TCP from rat cerebral cortex phencyclidine receptor at 100 uM measured after 120 mins by scintillation counting method relative to control.
In data set [7] the test system is CHO. Briefly: Displacement of [3H]methyl-spiperone from human recombinant dopamine D4.4 receptor expressed in CHO cells at 100 uM measured after 60 mins by scintillation counting method relative to control. The format is cell-based.
Data set [8] deals with Mus musculus. Description: Anticonvulsant activity in pentylenetetrazole induced seizure mouse model assessed as no observable episode of clonic convulsion of at least 5 secs at 300 mg/kg, ip measured at 0.5 hrs post dose. The format is functional, organism-based.
The test system of data set [9] is Mus musculus. Description: Anticonvulsant activity in 6-Hz induced seizure mouse model assessed as restoration of normal activity within 10 secs from stimulation at 100 mg/kg, ip at 32 mA measured at […] post dose. The format is functional, organism-based.
The target of data set [10] is Prostaglandin E2 receptor EP2 subtype (Homo sapiens) (UniProt P43116). Briefly: Displacement of [3H]PGE2 from human recombinant EP2 receptor expressed in HEK293 cells at 100 uM measured after 120 mins by scintillation counting method relative to control. The format is cell-based.
Prostaglandin E2 receptor EP2 subtype (Homo sapiens), sequence (P43116 whole entry): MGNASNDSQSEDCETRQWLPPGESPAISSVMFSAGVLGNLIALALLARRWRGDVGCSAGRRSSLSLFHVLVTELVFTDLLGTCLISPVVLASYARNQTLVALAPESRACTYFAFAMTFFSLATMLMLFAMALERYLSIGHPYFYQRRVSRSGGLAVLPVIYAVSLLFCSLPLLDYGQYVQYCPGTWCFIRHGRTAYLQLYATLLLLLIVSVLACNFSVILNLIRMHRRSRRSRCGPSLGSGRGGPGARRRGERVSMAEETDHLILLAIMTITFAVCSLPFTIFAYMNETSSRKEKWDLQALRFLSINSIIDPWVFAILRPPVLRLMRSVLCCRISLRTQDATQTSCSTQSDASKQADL
Data set [11] concerns the target T1, Muscarinic acetylcholine receptor M5 (Homo sapiens) (UniProt P08912).
T1 sequence (whole entry): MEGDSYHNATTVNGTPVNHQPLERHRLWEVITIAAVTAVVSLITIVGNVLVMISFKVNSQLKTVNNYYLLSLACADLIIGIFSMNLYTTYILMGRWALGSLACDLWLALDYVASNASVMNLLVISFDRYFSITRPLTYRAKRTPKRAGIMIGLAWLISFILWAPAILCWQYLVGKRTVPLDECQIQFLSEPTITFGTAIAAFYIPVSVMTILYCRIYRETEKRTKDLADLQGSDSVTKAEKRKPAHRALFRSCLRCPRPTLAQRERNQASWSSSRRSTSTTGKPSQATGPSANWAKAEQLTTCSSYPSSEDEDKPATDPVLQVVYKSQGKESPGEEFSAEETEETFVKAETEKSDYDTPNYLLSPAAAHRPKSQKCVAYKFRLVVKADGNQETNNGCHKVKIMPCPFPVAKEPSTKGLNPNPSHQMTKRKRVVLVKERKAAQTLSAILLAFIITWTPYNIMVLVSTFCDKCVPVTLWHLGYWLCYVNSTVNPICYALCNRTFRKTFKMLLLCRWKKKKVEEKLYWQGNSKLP
Description: Displacement of [3H]4-DAMP from human recombinant M5 receptor expressed in CHO cells at 100 uM measured after 60 mins by scintillation counting method relative to control. The format is cell-based.

Data set [12] has as its system Rattus norvegicus. Briefly: Anticonvulsant activity in po dosed maximal electroshock induced seizure Sprague-Dawley rat model assessed as suppression in hindlimb tonic extension. Format: functional.
For data set [13], the target named is Kappa-type opioid receptor (Rattus norvegicus) (UniProt P34975). Briefly: Displacement of [3H]U 69593 from rat recombinant kappa-opioid receptor expressed in CHO cells at 100 uM measured after 60 mins by scintillation counting method relative to control. Format: cell-based.
Kappa-type opioid receptor (Rattus norvegicus), sequence (P34975 whole entry): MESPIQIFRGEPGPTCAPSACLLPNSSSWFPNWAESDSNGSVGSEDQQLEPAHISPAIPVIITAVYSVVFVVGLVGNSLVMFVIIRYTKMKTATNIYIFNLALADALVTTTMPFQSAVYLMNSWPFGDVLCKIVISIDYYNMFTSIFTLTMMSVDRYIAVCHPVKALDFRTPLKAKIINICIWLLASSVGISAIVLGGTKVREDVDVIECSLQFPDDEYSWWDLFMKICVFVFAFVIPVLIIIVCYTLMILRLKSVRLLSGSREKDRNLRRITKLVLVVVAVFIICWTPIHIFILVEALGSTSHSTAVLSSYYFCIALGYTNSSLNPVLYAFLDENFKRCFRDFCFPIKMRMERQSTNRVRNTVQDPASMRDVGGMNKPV
The nature of data set [14]: Protection index, ratio of TD50 for neurotoxicity in ip dosed Sprague-Dawley rat model to ED50 for ip dosed pentylenetetrazole induced seizure Sprague-Dawley rat model. The format is toxicity, organism-based. To be noted: in vivo, read-out: Ratio TD50/ED50.
In data set [15] the target is 5-hydroxytryptamine receptor 2B (Homo sapiens) (UniProt P41595). Description: Displacement of [125I]DOI from human recombinant 5HT2B receptor expressed in CHO cells at 100 uM measured after 60 mins by scintillation counting method relative to control. The format is cell-based.
5-hydroxytryptamine receptor 2B (Homo sapiens), sequence (P41595 whole entry): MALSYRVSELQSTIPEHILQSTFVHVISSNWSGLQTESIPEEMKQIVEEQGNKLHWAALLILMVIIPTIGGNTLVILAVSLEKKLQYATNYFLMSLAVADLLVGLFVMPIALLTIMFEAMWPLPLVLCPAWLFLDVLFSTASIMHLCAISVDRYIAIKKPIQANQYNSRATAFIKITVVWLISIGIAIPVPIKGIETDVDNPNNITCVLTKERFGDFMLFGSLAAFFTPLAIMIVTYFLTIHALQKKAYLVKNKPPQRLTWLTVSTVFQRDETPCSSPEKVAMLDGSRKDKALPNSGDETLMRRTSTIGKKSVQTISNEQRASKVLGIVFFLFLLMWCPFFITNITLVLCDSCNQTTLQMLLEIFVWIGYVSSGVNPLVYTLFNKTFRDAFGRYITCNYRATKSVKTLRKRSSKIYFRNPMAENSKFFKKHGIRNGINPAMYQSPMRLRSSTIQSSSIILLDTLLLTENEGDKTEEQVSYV
The target of data set [16] is Sodium-dependent dopamine transporter (Homo sapiens) (UniProt Q01959). Description: Displacement of [3H]BTCP from human recombinant dopamine transporter expressed in CHO cells at 100 uM measured after 120 mins by scintillation counting method relative to control. The format is cell-based.
Sodium-dependent dopamine transporter (Homo sapiens), sequence (Q01959 whole entry): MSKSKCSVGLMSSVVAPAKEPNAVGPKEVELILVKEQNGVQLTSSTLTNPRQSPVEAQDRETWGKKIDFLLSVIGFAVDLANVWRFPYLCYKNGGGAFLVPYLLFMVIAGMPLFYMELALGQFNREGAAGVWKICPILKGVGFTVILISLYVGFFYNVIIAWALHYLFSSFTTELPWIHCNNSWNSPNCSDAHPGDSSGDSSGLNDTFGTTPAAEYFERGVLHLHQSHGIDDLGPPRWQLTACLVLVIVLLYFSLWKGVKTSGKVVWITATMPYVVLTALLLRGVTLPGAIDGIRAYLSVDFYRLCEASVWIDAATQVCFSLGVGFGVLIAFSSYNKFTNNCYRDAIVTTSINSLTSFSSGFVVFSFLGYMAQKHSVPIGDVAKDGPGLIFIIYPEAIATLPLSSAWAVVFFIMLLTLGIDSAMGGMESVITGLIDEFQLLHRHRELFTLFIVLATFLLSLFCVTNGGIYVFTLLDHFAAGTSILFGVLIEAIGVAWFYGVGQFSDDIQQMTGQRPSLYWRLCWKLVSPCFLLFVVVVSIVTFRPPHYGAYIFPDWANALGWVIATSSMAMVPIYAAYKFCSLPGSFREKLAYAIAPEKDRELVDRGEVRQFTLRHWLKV
Data set [17] has as its target T2, Endothelin receptor type B (Homo sapiens) (UniProt P24530).
T2 sequence (whole entry): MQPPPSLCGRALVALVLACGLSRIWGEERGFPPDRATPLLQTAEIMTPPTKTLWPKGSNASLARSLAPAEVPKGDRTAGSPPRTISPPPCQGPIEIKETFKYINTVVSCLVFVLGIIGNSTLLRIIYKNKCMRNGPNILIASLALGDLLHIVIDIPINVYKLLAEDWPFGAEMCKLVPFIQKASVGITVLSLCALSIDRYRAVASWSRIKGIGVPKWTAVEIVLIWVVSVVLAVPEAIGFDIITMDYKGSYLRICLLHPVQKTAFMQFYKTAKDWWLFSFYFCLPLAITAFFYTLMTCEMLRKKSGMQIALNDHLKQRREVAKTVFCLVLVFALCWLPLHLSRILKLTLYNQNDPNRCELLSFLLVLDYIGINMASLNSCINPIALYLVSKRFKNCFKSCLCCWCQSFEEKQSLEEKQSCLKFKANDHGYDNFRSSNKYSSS
Briefly: Displacement of [125I]endothelin-1 from human recombinant ETB receptor expressed in CHO cells at 100 uM measured after 120 mins by scintillation counting method relative to control. Format: cell-based.

Data set [18] deals with Nociceptin receptor (Homo sapiens) (UniProt P41146). Briefly: Displacement of [3H]nociceptin from human recombinant NOP receptor expressed in HEK293 cells at 100 uM measured after 60 mins by scintillation counting method relative to control. Format: cell-based.
Nociceptin receptor (Homo sapiens), sequence (P41146 whole entry): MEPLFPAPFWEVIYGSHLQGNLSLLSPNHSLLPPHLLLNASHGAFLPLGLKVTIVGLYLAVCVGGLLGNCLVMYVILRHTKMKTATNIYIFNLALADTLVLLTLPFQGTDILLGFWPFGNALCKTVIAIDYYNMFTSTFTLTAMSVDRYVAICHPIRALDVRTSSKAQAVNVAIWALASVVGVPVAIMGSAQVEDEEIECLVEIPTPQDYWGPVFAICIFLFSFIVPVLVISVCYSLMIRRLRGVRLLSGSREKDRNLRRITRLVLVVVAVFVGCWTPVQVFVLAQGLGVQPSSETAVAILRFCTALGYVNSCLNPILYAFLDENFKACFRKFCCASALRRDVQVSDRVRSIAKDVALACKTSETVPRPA
The test system of data set [19] is Mus musculus. Briefly: Anticonvulsant activity in 6-Hz induced seizure mouse model assessed as restoration of normal activity within 10 secs from stimulation at 100 mg/kg, ip at 32 mA measured at 0.5 hrs post dose. The format is functional, organism-based.
The target in data set [20] is Adenosine receptor A2a (Homo sapiens) (UniProt P29274). Briefly: Displacement of [3H]CGS 21680 from human recombinant adenosine receptor A2A expressed in HEK293 cells at 100 uM measured after 120 mins by scintillation counting method relative to control. The format is cell-based.
Adenosine receptor A2a (Homo sapiens), sequence (P29274 whole entry): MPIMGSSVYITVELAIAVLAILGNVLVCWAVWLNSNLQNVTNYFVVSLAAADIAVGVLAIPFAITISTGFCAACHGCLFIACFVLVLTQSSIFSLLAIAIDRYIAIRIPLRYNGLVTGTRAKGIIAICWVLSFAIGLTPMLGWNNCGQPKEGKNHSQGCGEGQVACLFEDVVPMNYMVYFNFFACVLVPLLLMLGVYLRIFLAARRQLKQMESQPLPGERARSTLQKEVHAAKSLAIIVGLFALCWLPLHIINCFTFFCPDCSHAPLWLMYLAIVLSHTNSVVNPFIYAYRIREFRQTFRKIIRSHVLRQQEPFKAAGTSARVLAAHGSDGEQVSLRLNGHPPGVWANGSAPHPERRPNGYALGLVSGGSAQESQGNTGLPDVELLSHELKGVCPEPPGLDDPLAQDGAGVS
For data set [21], the system named is Rattus norvegicus. Briefly: Neurotoxicity in Sprague-Dawley rat assessed as behavioral change at 30 mg/kg, po measured at 0.5 hrs post dose. To be noted: in vivo. Format: toxicity, organism-based.
Data set [22] has as its system Rattus norvegicus. Description: Anticonvulsant activity in ip dosed pentylenetetrazole induced seizure Sprague-Dawley rat model assessed as no observable episode of clonic convulsion of at least 5 secs by measuring time to peak effect. Format: functional.

The values below come from ChEMBL document CHEMBL3875185, “Structure-anticonvulsant activity studies in the group of (E)-N-cinnamoyl aminoalkanols derivatives monosubstituted in phenyl ring with 4-Cl, 4-CH3 or 2-CH3” (Bioorg Med Chem, 2017).

Active and inactive are the calls of the source. The rule behind the calls is not given here.

Cannabinoid receptor 1 (Homo sapiens), sequence (P21554 whole entry): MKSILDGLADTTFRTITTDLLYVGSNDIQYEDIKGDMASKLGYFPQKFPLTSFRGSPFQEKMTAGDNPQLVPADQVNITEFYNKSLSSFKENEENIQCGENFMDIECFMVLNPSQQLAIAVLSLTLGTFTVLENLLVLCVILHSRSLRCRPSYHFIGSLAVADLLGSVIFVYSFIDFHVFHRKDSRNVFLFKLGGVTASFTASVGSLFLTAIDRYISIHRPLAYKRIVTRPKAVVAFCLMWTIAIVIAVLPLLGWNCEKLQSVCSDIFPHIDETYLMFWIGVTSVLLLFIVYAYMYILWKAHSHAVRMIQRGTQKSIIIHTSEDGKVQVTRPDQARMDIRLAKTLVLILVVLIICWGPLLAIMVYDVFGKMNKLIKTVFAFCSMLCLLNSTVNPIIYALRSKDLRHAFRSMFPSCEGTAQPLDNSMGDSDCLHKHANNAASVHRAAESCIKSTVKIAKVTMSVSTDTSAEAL
Sodium-dependent noradrenaline transporter (Homo sapiens), sequence (P23975 whole entry): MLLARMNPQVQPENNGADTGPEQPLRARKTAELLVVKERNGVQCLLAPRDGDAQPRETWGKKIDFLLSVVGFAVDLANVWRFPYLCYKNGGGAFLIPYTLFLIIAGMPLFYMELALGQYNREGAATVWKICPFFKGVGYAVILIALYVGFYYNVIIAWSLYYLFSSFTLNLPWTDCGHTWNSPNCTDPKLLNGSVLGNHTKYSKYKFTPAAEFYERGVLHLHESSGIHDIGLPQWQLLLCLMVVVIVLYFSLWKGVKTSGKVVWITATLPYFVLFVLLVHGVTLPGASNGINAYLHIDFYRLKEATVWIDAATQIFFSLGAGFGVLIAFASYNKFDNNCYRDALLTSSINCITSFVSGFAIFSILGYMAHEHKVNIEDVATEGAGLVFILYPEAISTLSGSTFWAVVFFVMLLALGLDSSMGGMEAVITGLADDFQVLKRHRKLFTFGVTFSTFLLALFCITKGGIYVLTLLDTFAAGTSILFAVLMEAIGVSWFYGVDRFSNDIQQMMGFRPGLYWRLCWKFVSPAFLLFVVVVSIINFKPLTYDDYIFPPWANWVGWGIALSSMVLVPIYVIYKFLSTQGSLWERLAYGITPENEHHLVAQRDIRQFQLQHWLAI

As for `Cc1ccccc1/C=C/C(=O)N[C@@H](C)CO`, the Activity entry in data set [1] and in data set [21] was “Non-Toxic” each time. Besides, the Time in data set [2] and in data set [22] was 0.25 h throughout. The inhibition in data set [3] was 9.1%; in data set [5], 30.4%; in [6], 7.8%; in data set [7], 23.2%; in data set [10] it was 37.8%; in [11] it was -7.5%. Moreover, the inhibition in data set [13] is 14.8%; in data set [15], 79.8%; in data set [16] it was 14.8%; in data set [17], -8.2%; in [18], 2.2%; in [20], 3.8%. The values for the selectivity ratio in data set [4] and in data set [14] were greater than 19.4 and 4.18, respectively. The result in data set [8], in data set [9] and in [19] was Active. The ED50 in data set [12] stood at 25.8 mg/kg.
As for `CCC(CO)NC(=O)/C=C/c1ccc(Cl)cc1` (stereo unspecified), the Activity result in data set [1] and in [21] was “Non-Toxic” in each case. The Time in data set [2] and in data set [22] was 0.5 h each time. The inhibition was 11.5% in data set [3]; 61.7% in data set [5]; -2.2% in data set [6]; 30.6% in data set [7]; 57.6% in data set [10]; -9.2% in data set [11]. In addition, the inhibition in [13] is 41.9%; in [15], 58.2%; in data set [16] it was 29.5%; in data set [17], -10%; in data set [18], -4.4%; in data set [20] it was 27.3%. Moreover, the selectivity ratio was determined as 5.92 in [4] and 1.23 in data set [14]. Besides, the result in data set [8], in data set [9] and in data set [19] was Active. Moreover, the median effective dose (ED50) in data set [12] was determined as 46.8 mg/kg.
Consider `CC(O)CNC(=O)/C=C/c1ccc(Cl)cc1` (stereo unspecified), for which the Activity entry in data set [1] and in [21] was “Non-Toxic” throughout. Moreover, the Time in [2] and in [22] was 0.5 h throughout. Also, the inhibition was 4.7% in [3]; 48.1% in data set [5]; -5.5% in data set [6]; 28.2% in data set [7]; 29.7% in data set [10]; -5.9% in data set [11]. Also, the inhibition in data set [13] is 31.6%; in data set [15], 41.6%; in [16], 16%; in [17] it was -4.6%; in data set [18] it was 1.7%; in data set [20], 25.2%. For the same molecule, the selectivity ratio in data set [4] worked out at 6.47; in data set [14], 1.25. In addition, the result in data set [8], in data set [9] and in data set [19] was Active. In [12], the ED50 is 77.3 mg/kg.
